# Source: ChEMBL document CHEMBL5096216, “Rational Design, Synthesis, and Biological Evaluation of Novel S1PR2 Antagonists for Reversing 5-FU-Resistance in Colorectal Cancer” (J Med Chem, 2022)
# Calls of active or inactive are those of the source. No cut-off for these calls is given here.
# What was measured:
# Mus musculus [1] = test: In vivo inhibition of tumor DPD expression in human SW620/5-FU cells xenografted in nude mouse at 1 to 10 mg/kg/day by Western blot analysis; assay type: functional, organism-based; conditions: dose 1-10 mg/kg/day
# SW620/5-FU [2] = test: Induction of apoptosis in human SW620/5-FU cells assessed as late apoptotic cells at 10 uM incubated for 24 hrs in presence of 5-FU by Annexin-V/PI staining based flow cytometry assay (reference value: 2.97%); assay type: functional
# HT-29 [3] = test: Reversal of 5-FU resistance in human HT-29 cells assessed as reduction in cell viability incubated for 48 hrs in presence of 5-FU by MTT assay; assay type: functional, cell-based; conditions: HT-29, 48 h
# SW620/5-FU [4] = test: Antitumor activity against human SW620/5-FU cells xenografted in nude mouse assessed as tumor wight at 5 mg/kg/day, iv in presence of 5-FU (reference value: 1.3 +/-0.6 g); assay type: functional
# [5] = biological target: Sphingosine 1-phosphate receptor 5 (Homo sapiens, UniProt Q9H228); test: Binding affinity to S1PR5 (unknown origin) assessed as dissociation constant by surface plasmon resonance analysis
# NCM460 = test: Cytotoxicity against human NCM460 cells assessed as reduction in cell viability incubated for 48 hrs in presence of 5-FU by MTT assay; assay type: functional, cell-based; conditions: NCM460, 48 h
# SW620/5-FU [6] = test: Induction of apoptosis in human SW620/5-FU cells assessed as early apoptotic cells at 10 uM incubated for 24 hrs by Annexin-V/PI staining based flow cytometry assay (reference value: 2.73%); assay type: functional
# SW620/5-FU [7] = test: Induction of apoptosis in human SW620/5-FU cells assessed as late apoptotic cells at 20 uM incubated for 24 hrs in presence of 5-FU by Annexin-V/PI staining based flow cytometry assay (reference value: 2.97%); assay type: functional
# HCT-116 [8] = test: cells; conditions: Homo sapiens, HCT-116, 48 h
# Description: Reversal of 5-FU resistance in human HCT-116 cells overexpressing DPD assessed as reduction in 5-Fluorouracil IC50 at 2 uM incubated for 48 hrs (Rvb = 1836.66 +/- 87.95 %)
# SW620/5-FU [9] = test: Induction of apoptosis in human SW620/5-FU cells at 20 to 40 uM in presence of 5-FU by Hochest33342 staining based assay; assay type: functional, cell-based; conditions: dose 20-40 µM
# [10] = Metabolic stability in human plasma assessed as compound remaining at 1 mg/ml measured after 48 hrs by HPLC analysis; assay type: ADME, cell-free; conditions: read-out: Stability
# SW620/5-FU [11] = test: Induction of apoptosis in human SW620/5-FU cells assessed as early apoptotic cells at 10 uM incubated for 24 hrs in presence of 5-FU by Annexin-V/PI staining based flow cytometry assay (reference value: 2.73%); assay type: functional
# SW620/5-FU [12] = test: Induction of apoptosis in human SW620/5-FU cells assessed as viable cells at 10 uM incubated for 24 hrs in presence of 5-FU by Annexin-V/PI staining based flow cytometry assay (reference value: 94.3%); assay type: functional; conditions: read-out: Activity
# SW620/5-FU [13] = test: Antitumor activity against human SW620/5-FU cells xenografted in nude mouse assessed as tumor wight at 10 mg/kg/day, iv in presence of 5-FU (reference value: 1.3 +/- 0.6 g); assay type: functional
# [14] = biological target: Sphingosine 1-phosphate receptor 1 (Homo sapiens, UniProt P21453); test: Binding affinity to S1PR1 (unknown origin) assessed as dissociation constant by surface plasmon resonance analysis
# HT-29 [15] = test: Upregulation of H3K27me3 expression in 5-FU resistant human HT-29 cells incubated for 12 hrs by Western blot analysis; assay type: functional, cell-based; conditions: dose 2.5-20 µM, DDE = dose-dependent effect
# [16] = Toxicity in nude mouse xenografted with human SW620/5-FU cells assessed as morphological changes in lung at 1 to 10 mg/kg/day, iv by hematoxylin-eosin staining based analysis; assay type: organism-based; conditions: in vivo, dose 1-10 mg/kg/day
# SW620/5-FU [17] = test: Reversal of 5-FU resistance in human SW620/5-FU cells assessed as fold reduction in 5-Fluorouracil IC50 at 5 uM incubated for 48 hrs; assay type: functional
# HCT-116 [18] = test: Antiproliferative activity against human HCT-116 cells overexpressing DPD assessed as reduction in cell viability incubated for 48 hrs by MTT assay; assay type: functional, cell-based; conditions: HCT-116, 48 h
# HCT-116 [19] = test: Reversal of 5-FU resistance in human HCT-116 cells overexpressing DPD assessed as fold reduction in 5-Fluorouracil IC50 at 2 uM incubated for 48 hrs; assay type: functional
# HT-29 [20] = test: Downregulation of JMJD3 expression in 5-FU resistant human HT-29 cells incubated for 12 hrs by Western blot analysis; assay type: functional, cell-based; conditions: dose 2.5-20 µM, DDE = dose-dependent effect
# SW620/5-FU [21] = test: Induction of apoptosis in human SW620/5-FU cells assessed as late apoptotic cells at 10 uM incubated for 24 hrs by Annexin-V/PI staining based flow cytometry assay (reference value: 2.97%); assay type: functional
# SW620/5-FU [22] = test: Induction of apoptosis in human SW620/5-FU cells assessed as viable cells at 20 uM incubated for 24 hrs by Annexin-V/PI staining based flow cytometry assay (reference value: 94.3%); assay type: functional; conditions: read-out: Activity
# SW620/5-FU [23] = test: Reversal of 5-FU resistance in human SW620/5-FU cells assessed as reduction in cell viability incubated for 48 hrs in presence of 5-FU by MTT assay; assay type: functional, cell-based
# Mus musculus [24] = test: In vivo inhibition of tumor DPD expression in human SW620/5-FU cells xenografted in nude mouse at 1 to 10 mg/kg/day by immunohistochemistry analysis; assay type: functional, organism-based; conditions: dose 1-10 mg/kg/day
# Mus musculus [25] = test: In vivo inhibition of liver DPD expression in human SW620/5-FU cells xenografted in nude mouse at 1 to 10 mg/kg/day by Western blot analysis; assay type: functional, organism-based; conditions: dose 1-10 mg/kg/day
# SW620/5-FU [26] = test: Induction of apoptosis in human SW620/5-FU cells assessed as necrotic cells at 20 uM incubated for 24 hrs in presence of 5-FU by Annexin-V/PI staining based flow cytometry assay (reference value: 0%); assay type: functional
# [27] = Metabolic stability in rat liver homogenate assessed as compound remaining at 1 mg/ml measured after 48 hrs by HPLC analysis; assay type: ADME, tissue-based; conditions: read-out: Stability
# SW620/5-FU [28] = test: Induction of apoptosis in human SW620/5-FU cells assessed as viable cells at 20 uM incubated for 24 hrs in presence of 5-FU by Annexin-V/PI staining based flow cytometry assay (reference value: 94.3%); assay type: functional; conditions: read-out: Activity
# SW620/5-FU [29] = test: Downregulation of DPD expression in human SW620/5-FU cells incubated for 12 hrs by Western blot analysis; assay type: functional, cell-based; conditions: dose 2.5-20 µM, DDE = dose-dependent effect
# HT-29 [30] = test: Antiproliferative activity against human HT-29 cells assessed as reduction in cell viability incubated for 48 hrs by MTT assay; assay type: functional, cell-based; conditions: HT-29, 48 h
# SW620/5-FU [31] = test: Induction of apoptosis in human SW620/5-FU cells assessed as necrotic cells at 10 uM incubated for 24 hrs by Annexin-V/PI staining based flow cytometry assay (reference value: 0%); assay type: functional
# SW620/5-FU [32] = test: Antitumor activity against human SW620/5-FU cells xenografted in nude mouse assessed as tumor volume at 10 mg/kg/day, iv measured on day 15 in presence of 5-FU (reference value: 1991 +/- 469 mm3); assay type: functional; conditions: time 15 day
# HT-29 [33] = test: Downregulation of DPD expression in 5-FU resistant human HT-29 cells incubated for 12 hrs by Western blot analysis; assay type: functional, cell-based; conditions: dose 2.5-20 µM, DDE = dose-dependent effect
# SW620/5-FU [34] = test: Antitumor activity against human SW620/5-FU cells xenografted in nude mouse assessed as tumor volume at 10 mg/kg/day, iv measured on day 1 in presence of 5-FU (reference value: 105 +/- 14 mm3); assay type: functional; conditions: time 1 day
# Sequence of Sphingosine 1-phosphate receptor 5 (Q9H228 whole entry): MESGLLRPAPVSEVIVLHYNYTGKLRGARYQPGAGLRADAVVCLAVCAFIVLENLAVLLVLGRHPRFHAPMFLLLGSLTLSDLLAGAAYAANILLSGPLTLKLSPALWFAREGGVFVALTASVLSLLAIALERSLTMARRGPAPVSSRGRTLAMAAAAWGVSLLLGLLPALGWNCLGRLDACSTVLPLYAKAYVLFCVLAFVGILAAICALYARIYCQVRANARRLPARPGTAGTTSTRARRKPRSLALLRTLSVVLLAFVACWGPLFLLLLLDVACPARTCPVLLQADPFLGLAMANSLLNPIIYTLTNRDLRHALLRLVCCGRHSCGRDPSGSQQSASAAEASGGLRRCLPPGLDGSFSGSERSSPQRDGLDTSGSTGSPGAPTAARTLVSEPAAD
# Sequence of Sphingosine 1-phosphate receptor 1 (P21453 whole entry): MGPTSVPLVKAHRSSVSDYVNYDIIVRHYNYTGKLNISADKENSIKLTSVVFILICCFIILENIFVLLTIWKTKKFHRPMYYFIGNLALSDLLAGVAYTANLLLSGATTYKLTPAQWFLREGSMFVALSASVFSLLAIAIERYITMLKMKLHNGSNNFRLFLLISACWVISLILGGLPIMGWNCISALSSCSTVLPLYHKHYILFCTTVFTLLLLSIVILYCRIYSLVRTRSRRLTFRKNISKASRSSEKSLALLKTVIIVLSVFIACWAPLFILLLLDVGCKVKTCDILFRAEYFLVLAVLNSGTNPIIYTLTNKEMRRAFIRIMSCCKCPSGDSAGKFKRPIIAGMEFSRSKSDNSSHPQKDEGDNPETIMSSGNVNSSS
structure (smiles),measurement,setting,value
CCC(CC)CN1CCN(C(=O)Nc2cc(Oc3ccc(F)cc3)cc(Oc3ccc(C(=O)NC)cc3)c2)CC1,inhibition,Mus musculus [1],Active
same,Activity,SW620/5-FU [2],7.76%
same,IC50,HT-29 [3],2.51 µM
same,Activity,SW620/5-FU [4],0.5 g
same,Kd,[5],> 0.1 µM
same,IC50,NCM460,> 100 µM
same,Activity,SW620/5-FU [6],3.41%
same,Activity,SW620/5-FU [7],7.14%
same,IC50,HCT-116 [8],56.4 µM
same,Activity,SW620/5-FU [9],Active
same,"remaining at 48 h, 1 mg/ml",[10],96.4%
same,Activity,SW620/5-FU [11],4.41%
same,viability at 10 µM,SW620/5-FU [12],87.7%
same,Activity,SW620/5-FU [13],0.3 g
same,Kd,[14],> 0.1 µM
same,Activity,HT-29 [15],Dde
same,Activity,[16],Non-Toxic
same,fold change (FC),SW620/5-FU [17],88
same,IC50,HCT-116 [18],> 100 µM
same,fold change (FC),HCT-116 [19],33
same,Activity,HT-29 [20],Dde
same,Activity,SW620/5-FU [21],2.76%
same,viability at 20 µM,SW620/5-FU [22],92.1%
same,IC50,SW620/5-FU [23],1.99 µM
same,inhibition,Mus musculus [24],Active
same,inhibition,Mus musculus [25],Active
same,Activity,SW620/5-FU [26],0.076%
same,"remaining at 48 h, 1 mg/ml",[27],68.9%
same,viability at 20 µM,SW620/5-FU [28],64.2%
same,Activity,SW620/5-FU [29],Dde
same,IC50,HT-29 [30],> 100 µM
same,Activity,SW620/5-FU [31],0.042%
same,Activity,SW620/5-FU [32],521 mm3
same,Activity,HT-29 [33],Dde
same,Activity,SW620/5-FU [34],104 mm3
